The values below come from patent US20040097587A1, “Compositions and methods of treatment of ulcerating diseases, burns, and related conditions” (priority 2003, published 2004).

For this experiment, the system named is venous ulcer. Kind of experiment: Case of a person with venous ulcer and related conditions treated with oral isotretinoin. It counts as in vivo, human. Particulars: approximately 80 milligrams per day for two months. An excerpt: Preferred unit dosage formulations are those containing a daily dose or unit, daily sub-dose, or an appropriate fraction thereof, of the administered ingredient. […] Acad. of Dermatol, 45, 462-465, which is herein incorporated by reference.

Regarding `CC1=C(/C=C/C(C)=C/C=C/C(C)=C\C(=O)O)C(C)(C)CCC1` [isotretinoin, 13-cis-retinoic acid], the “overall clinical outcome of venous ulcer and related conditions” value (person having venous ulcer and related conditions for five months) is listed as “significant improvement”. Also, under “person”, the lesions entry is on record as “improved”, the venous ulcer healing result is “healed” and the vessel prominence entry was “significantly decreased”.
